Experimental findings from PMC12677843, “Multidisciplinary Preclinical Investigations on Ferrocenyl, Ruthenocenyl, and Benzyl Derivatives of Niridazole as New Drug Candidates against Schistosomiasis” (Chemmedchem, 2025) are described below.

One data set has as its system adult S. mansoni. Description: In vitro drug sensitivity assay on adult S. mansoni (microscopic viability scoring). It counts as cell-based, Schistosoma mansoni. Conditions: for EC50: Schistosoma mansoni, 37 °C, 5% CO2. Here is the method: Figure 3 In vitro activity at 50 µM of the 12 compounds on adult S. mansoni. Adult schistosomes were incubated in culture media for 72 h at 37 °C and 5% CO2 with either compound (50 µM) or a DMSO (0.5%) control. The viability of the worms was microscopically evaluated and scored (0—3, in 0.5 steps) every 24 h. Results are from two independent experiments, each performed in duplicate. Drug activities were normalized to the DMSO controls. Data represent mean ± SD in percentage of DMSO control. […]
In vitro evaluation on adult S. mansoni
After a week for acclimatization to the new environment with controlled conditions (temperature: 22 °C ± 2 °C, humidity: 50 % ± 10 %, 12:12 h light/dark photocycle), four-week-old female NMRI mice (Charles River, Sulzfeld, Germany) were subcutaneously infected with approximately 100 cercariae to establish the S. mansoni infection. In the S. mansoni infected mice the worms were allowed to develop for 7 weeks into the adult stage, before they were extracted from the mesenteric veins of the euthanized mice. The adult worms were placed into RPMI 1640 (Gibco, Waltham MA, USA) medium supplemented with 1 % penicillin/streptomycin mixture and 5 % iFCS at 37 °C and 5 % CO 2. The drug sensitivity assay was set up in a 24-well plate with two wells containing each two pairs of S. mansoni worms per compound and concentration.
The final volume per well was 2 mL, containing the culture medium and the corresponding amount of drug dissolved in DMSO. The maximum concentration tested was 50 µM, corresponding to 0.5 % DMSO, to which all the other wells were adapted […]
to, so that all test concentrations contained always the same amount of DMSO.
Additionally, 2 wells with negative controls containing only DMSO and the culture medium were included. After an incubation period of 72 h at 37 °C and 5 % CO 2, the worms were microscopically evaluated. The drug effect was determined 24, 48 and 72 h post-exposure based on the phenotype of the adult worms, using a viability scale ranging from three referring to viable, motile worms with no change in their tegument to zero standing for the death of the worms.
All described in vitro studies with mice involved, were conducted at the Swiss Tropical and Public Health Institute, first in Basel, later in Allschwil, and had the approval by the corresponding veterinary authorities of the Canton Basel-Stadt (permit no. 2070)

The subject of the next data set is SH-SY5Y cells. The data set is described as follows: SYTOX cell viability assay, SH-SY5Y. In kind it is cell-based, human. The note with it: 20 µM, 24 h, serum-free charcoal-treated medium, vs DMSO control (0.2%), mean. Here is the method:
The SYTOX cell viability assay was performed in SHSY5Y cells. Cells were treated with either compound (20 µM) or DMSO control (0.2%) for 24 h at 37 °C and 5% CO2 in serum‐free charcoal‐treated medium. Results were normalized to the DMSO control. Mean ± SD was calculated from three independent experiments, each performed in quadruplicate. […]
serum-free media containing either treatment at a concentration of 20 µM or DMSO (ITW Reagents Cat A3672) control (0.2 %).
Following 24 h of incubation, 12.5 μL of an XTT/phenazine methosulfate (PMS) (XTT Sigma Aldrich cat X4626, PMS Serva CAT: 3203) 0.02solution (1 mg/mL XTT and 7.5 μg/mL PMS) was added to each well. Absorbance was measured using a microplate reader (Biotek Synergy HT) at 450 nm (signal) and 650 nm (background), 2 h after the addition of the XTT/PMS solution. Individual backgrounds were subtracted and all results were normalized to DMSO control. Mean ± SD was determined from three independent experiments, each performed in quintuplicate.
SYTOX cell viability assay
The cytotoxic potential was additionally evaluated using the staining-based SYTOX viability assay. […] Data was acquired on the BioTeck Cytation5 microscope and evaluated by the manufacturer’s software (Gen5 Image Prime Version 3.12). […] Mean ± SD was determined from three independent experiments, each performed in quadruplicate. […]

Broadly, the EC50 is the concentration at which the effect is half-maximal.

Each structure is given as a SMILES string. Where two headings read alike, the source gives them in different places.

With `O=C1NCCN1c1ncc([N+](=O)[O-])s1` [Niridazole, niridazole], in the data set with adult S. mansoni (50 µM, 72 h incubation, normalized to DMSO control, active if ≥60%), the “drug effect at 50 µM on adult S. mansoni” value was found to be 83%. Moreover, the concentration giving a half-maximal response (EC50) with adult S. mansoni (24 h, 24 h drug exposure, read-out: EC50 on adult S. mansoni, 24 h) was over 50 µM; in the data set on adult S. mansoni (48 h, 48 h drug exposure, read-out: EC50 on adult S. mansoni, 48 h) it was 7.8 µM; in the data set on adult S. mansoni (72 h, 72 h drug exposure, read-out: EC50 on adult S. mansoni, 72 h), 5.6 µM. The “reduction of SH-SY5Y cell viability (SYTOX)” value with SH-SY5Y cells was “no signs of toxicity”.
